The target of data set [1] is T1, recombinant BChE (hBChE, E.C. 3.1.1.8) (Homo sapiens, UniProt P06276).
T1 construct: purchased Sigma-Aldrich, Prague, Czech Republic
Put plainly: biochemical. The format is biochemical.
Description: The activities of hAChE and hBChE were determined using a modified Ellman's method, as described in ref. [56] and [62] against recombinant AChE (hAChE, E.C. 3.1.1.7) and recombinant BChE (hBChE, E.C. 3.1.1.8), both of which were purchased from Sigma-Aldrich, Prague, Czech Republic. […] The other compounds used, including the phosphate buffer solution (PBS, pH = 7.4), 5,5′-dithio-bis(2-nitrobenzoic) acid (Ellman's reagent, DTNB), acetylthiocholine (ATChI), and butyrylthiocholine (BTChI), were commercially available and purchased from Sigma-Aldrich in Prague, Czech Republic. In brief, the corresponding enzyme (8.3 μL), 5 mM DTNB (283 μL), and the sample dilution in dimethyl sulfoxide (DMSO) at various concentrations (8.3 μL) were added to 96-well microplates (BRAND GMBH + CO KG, Wertheim, Germany) and pre-incubated for 5 minutes in the assay medium. The reaction was initiated by adding 10 mM substrate (ATChI or BTChI, 33.3 μL). […] Each measurement was repeated in triplicate. The percentage of inhibition was calculated using the following formula: [drawing 8] where ΔABl represents the increase in absorbance of the blank sample, and ΔASa represents the increase in absorbance of the measured sample. […] Microsoft Excel (Redmond, WA, USA) and GraphPad Prism version 7 for Windows (GraphPad Software, San Diego, CA, USA) were used for the statistical data evaluation.

A short description of a further data set: in vitro. The note with it: human, HepG2 hepatocellular carcinoma cells.
In a further data set the target is hBChE (Homo sapiens, UniProt P06276). The experiment in a line: Enzyme kinetic analysis of hBChE inhibition. The format is biochemical. How it is done:
A kinetic study was performed to estimate the interaction mode of derivative 33 with hBChE. The inhibition kinetics was calculated from rate curves that were determined at several concentrations of the tested compound and substrate. The type of enzyme inhibition and appropriate kinetic parameters (Ki and Ki′) were determined using nonlinear regression analysis. Results for each type of inhibition model (competitive, non-competitive, uncompetitive and mixed) were compared by the sum-of-squares F-test. […].
The kinetic study of hBChE was conducted using the modified Ellman's method mentioned earlier,[62,74,75] with slight variations applied at the collaborating laboratory. Solutions of the corresponding ChE in phosphate buffer (PB) were prepared to achieve a final activity of 0.002 U μL^−1. The solutions of the tested compounds (8.3 μL at varying concentrations) were pre-incubated for 5 minutes in the assay medium. […] The increase in absorbance was measured for 1 minute at 412 nm using the Multimode microplate reader Synergy 2 (BioTek Inc., Winooski, VT, USA). Nunc flat-bottomed polystyrene 96-well microplates (ThermoFisher Scientific, USA) were used for these measurements. To calculate the resulting measured activity (expressed as the percentage of inhibition I), the following formula was applied: [drawing 9] where ΔAi indicates the absorbance change provided by adequate enzyme exposed to the corresponding inhibitor and ΔA0 indicates the absorbance change when a solution of PB was added instead of a solution of the inhibitor. Microsoft Excel (Redmond, WA, USA) and GraphPad Prism version 8.30 for Windows (GraphPad Software, San Diego, CA, USA) were employed for the statistical data analysis. The values of Vmax and Km for the Michaelis–Menten kinetics, as well as the values of Ki (enzyme–inhibitor dissociation constant) and Ki′ (enzyme–substrate–inhibitor dissociation constant), were calculated through nonlinear regression from the substrate velocity curves. Linear regression was used for the calculation of Lineweaver–Burk plots. […]

The test system of a further data set is HepG2 cells. The note with it: human, 24 h.
Data set [2] in a line: Cytotoxicity MTT assay, human neuroblastoma cell line. The note with it: SH-SY5Y neuroblastoma cells. Background: Tetrazolium dyes change colour on reduction, which living cells bring about.
Data set [3] is described as follows: Human liver microsomal (HLM) stability. Format: in vitro ADME. The note with it: pooled human liver microsomes. In general terms: Liver microsomes are a subcellular fraction often used to study metabolism.
Description: Briefly, compounds were dissolved in DMSO to produce stock sample solutions. […] Subsequently, 400 μL of supernatant was transferred to the vial and analyzed by LC-MS. Three types of blank samples were prepared in the same way, with a one-step exception. In the biological blank sample, 5 μL of DMSO was added instead of 5 μL stock solution, in the chemical blanks, 50 μL of water was added instead of HLM, and in the case of the control blank sample, 25 μL of water was added instead of 25 μL of RapidStart System.
A Reverse-phase C18 column Kinetex EVO (Phenomenex, Torrance, CA, USA) was used as a stationary phase, and purified water with 0.1% formic acid (mobile phase A) and LC-MS grade acetonitrile with 0.1% formic acid (mobile phase B) were used as the mobile phases. […] The column temperature was kept constant at 27 °C, the flow of the mobile phase was 0.5 mL min^−1, and the injection volume was 1 μL. […]
The peak areas of the compounds (Acmp) and internal standards (AIS) were detected in positive mode in extracted ion chromatograms from the mass spectrometer data. For the determination of microsomal stability, the Acmp/AIS was calculated as logarithmized. […]
Another data set in a line: Human plasma stability. Format: in vitro ADME. The note with it: percentage of the remaining compound after 120 min incubation, 1 μM. The procedure: Compound 33 was incubated with human pooled plasma (Batch S00G71, Biowest, France). Briefly, compounds were dissolved in DMSO to produce stock sample solutions. 10 μL of stock solution was added to 990 μL of human plasma to initiate the reaction. […] The reactions were stopped by transferring 200 μL of incubate to 200 μL of acetonitrile containing the internal standard (IS; 67) at appropriate time points (0, 15, 30, 60 and 120 min) and centrifuged at 12 000 rpm for 5 min at 4 °C to precipitate the protein. After that, […] of supernatant was transferred to the vial and analyzed by LC-MS.
The HPLC system used in this study was Dionex Ultimate 3000 UHPLC RS consisting of an RS pump, RS column compartment, RS autosampler and diode array detector controlled by Chromeleon (version 7.2.9. build 11323) software (Thermo Fisher Scientific, Germering, Germany) connected to a Q Exactive Plus Orbitrap mass spectrometer with Thermo Xcalibur (version 3.1.66.10.) software (Thermo Fisher Scientific, Bremen, Germany). […]
For the determination of plasma stability, the percentage of the remaining compound was calculated from the ratio between peak area ratios (compound peak area/internal standard peak area) obtained at incubation times 0 and 120 min.

Data set [4] can be described thus: Aqueous solubility determination. Format: physicochemical. Conditions: ultrapure distilled water containing 5% DMSO, 37 °C. How it is done:
Briefly, 200 μl of the aqueous solution of compound 33 at the concentration of 50 μM was analyzed for the UV/vis absorption spectrum using a multimode microplate reader (TECAN Spark®, Tecan Group Ltd., Switzerland) and the wavelength of maximum absorbance was used for further testing of the corresponding compound. Subsequently, six consecutive concentrations were prepared for the compound by serial dilution of 50 μM standard solution and the absorbance of these solutions (200 μl) was measured by a microplate reader. The data were used to calculate the calibration curve by the linear regression method. Finally, the over-saturated solutions of the tested compound were prepared and incubated in an ultrasound water bath at 37 °C for 10 min. Then the solutions were centrifuged at 8000 RPM for 10 min and the UV/vis absorption of the supernatant was measured by a microplate reader. The obtained absorption value was used to calculate the maximum water solubility of the tested compound. In case the absorption value of the supernatant was higher than the calibration curve range, the supernatant was diluted with a 5% DMSO/water solution to match the calibration curve.

The nature of data set [5]: PAMPA assay (BBB penetration). On the technique in general: PAMPA measures passive passage across an artificial lipid membrane.
Excerpt: Furthermore, we experimentally determined the ability of 12 highlighted hBChE inhibitors to pass through the BBB using a parallel artificial membrane permeation assay (PAMPA) as described by Di et al.[65] […] The methodology was validated on a set of compounds (positive and negative controls) recognized for their activity in the CNS (Table 3).
In this study, it has been used as a non-cell-based in vitro assay carried out in a coated 96-well membrane filter. The filter membrane of the donor plate was coated with PBL (polar brain lipid, Avanti, USA) in dodecane (4 μl of 20 mg ml^−1 PBL in dodecane) and the acceptor well was filled with 300 μl of PBS (pH 7.4; VA). The tested compounds were dissolved first in DMSO and subsequently diluted with PBS (pH 7.4) to final concentrations of 50–100 μM in the donor wells. […] About 300 μL of the donor solution was added to the donor wells (VD) and the donor filter plate was carefully put on the acceptor plate so that the coated membrane was “in touch” with both the donor solution and acceptor buffer. In principle, the test compound diffused from the donor well through the lipid membrane (area = 0.28 cm^2) to the acceptor well. The concentration of the drug in both the donor and acceptor wells was assessed after 3, 4, 5, and 6 h of incubation in quadruplicate using the UV plate reader Spark (Tecan Group Ltd, Switzerland) at the maximum absorption wavelength of each compound. Besides that, a solution of theoretical compound concentration, simulating the equilibrium state established if the membrane were ideally permeable, was prepared and assessed as well. The concentration of the compounds in the donor and acceptor wells and equilibrium concentration were calculated from the standard curve and expressed as the permeability (Pe) according the equation: [drawing 10] where [drawing 11]

As usually defined, the IC50 is the concentration needed to halve the response being measured. What is called inhibition is the drop in the measured response relative to a control, in per cent. By Ki is commonly meant the dissociation constant of the complex between target and ligand, obtained from inhibition or displacement. A word on the microsomal CLint: it is a measure of how fast metabolising enzymes remove a compound, apart from limits set by blood flow. A lower microsomal CLint goes with slow turnover. As usually defined, the solubility is how much of the substance goes into solution per volume. Read a high solubility as much dissolved substance.

Structures are written as SMILES. In brackets after ≈: the same amount, converted by molar mass.

Chain of hBChE (P06276 29-602): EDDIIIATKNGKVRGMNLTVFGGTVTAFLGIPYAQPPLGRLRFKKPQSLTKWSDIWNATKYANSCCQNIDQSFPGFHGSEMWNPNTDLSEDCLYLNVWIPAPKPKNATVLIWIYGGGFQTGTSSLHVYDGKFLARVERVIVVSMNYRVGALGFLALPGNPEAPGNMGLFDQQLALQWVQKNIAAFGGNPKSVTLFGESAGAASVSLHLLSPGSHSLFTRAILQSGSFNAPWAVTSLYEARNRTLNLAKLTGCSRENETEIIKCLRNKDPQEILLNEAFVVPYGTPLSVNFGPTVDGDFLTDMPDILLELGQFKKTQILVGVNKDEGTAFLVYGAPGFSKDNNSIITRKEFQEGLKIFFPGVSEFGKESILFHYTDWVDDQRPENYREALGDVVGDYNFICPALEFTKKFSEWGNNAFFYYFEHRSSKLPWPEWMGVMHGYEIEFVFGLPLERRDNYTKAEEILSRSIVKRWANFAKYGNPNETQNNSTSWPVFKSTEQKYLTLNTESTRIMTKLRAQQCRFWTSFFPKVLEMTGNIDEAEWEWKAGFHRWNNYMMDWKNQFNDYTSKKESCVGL
T1 sequence (P06276 29-602): as above
Description for HepG2 cells: (§1) For passaging, the cells were treated with trypsin/EDTA (Sigma-Aldrich, St. Louis, USA) at 37 °C and then harvested. For cytotoxicity evaluation, the cells treated with the studied substances were used, while untreated HepG2 cells served as the control group. The cells were seeded in a 96-well plate at a density of 5 × 10^4 cells per well and incubated for 24 hours. All tested compounds were dissolved in DMSO to prepare 10 mM stock solutions and subsequently diluted to the desired concentration just before the cell treatment (the highest DMSO concentration used was 0.5% v/v). Positive and negative controls were included, as well, and the activity of all the samples was determined in triplicate. Plates were incubated for 24 h in a humidified atmosphere containing 5% CO2 at 37 °C. […] Afterwards, the formazan crystals were dissolved in DMSO, and the absorbance of samples was recorded at 570 nm (BioTek, Synergy Neo2 Multi-Mode Reader NEO2SMALPHAB; BioTek, Winooski, VT, USA). IC50 values were calculated by nonlinear regression from a semi-logarithmic plot of incubation concentration versus percentage of absorbance relative to untreated controls using GraphPad Prism software (version 9; GraphPad Software, Inc., La Jolla, CA, USA).
Description for in vitro: as §1

With `CCCN(CCc1ccc(O)cc1)Cc1ccc(OCc2ccccc2)cc1` [Compound 33, 4-[2-({[4-(Benzyloxy)phenyl]methyl}(propyl)amino)ethyl]phenol], the IC50 in [1] (mean ± SEM of three independent measurements, each in triplicate) came to 167 ± 18 nM. For the same molecule, in [1] (tested at 10 μM compound concentration, read-out: % inhibition of hBChE ± SEM), the inhibition at 10 µM was 95 ± 1.1%. The values for the IC50 at 24 h (in “in vitro”; in [2]) were 93000 ± 11000 nM and 38000 ± 3500 nM, respectively. At hBChE (enzyme–inhibitor dissociation constant, nonlinear regression), the Ki turned out to be 182 ± 28 nM. Also, on hBChE (enzyme–substrate–inhibitor dissociation constant, nonlinear regression), the “Ki′” value came out at 1619 ± 315 nM. Besides, the “type of enzyme inhibition” value at hBChE (sum-of-squares F-test, p < 0.0002, Lineweaver–Burk plot) was “mixed inhibition pattern”. In the data set with HepG2 cells, this molecule gave a Safety index of 560. Besides, in data set [3] (pH 7.4), the microsomal CLint at 0.75 h, 3 µM worked out at 161 µL/min/mg. In addition, the half-life at 0.75 h, 3 µM in data set [3] (pH 7.4, up to 45 min incubation, read-out: HLM T½) was found to be 8.62 min. Also, the Plasma stability in the data set “Human plasma stability” came out at 94.5%. This molecule showed a solubility at 10 min in data set [4] of 267 µM (≈ 100 µg/mL). In addition, in data set [5] (PAMPA, PBS pH 7.4, n = 3), the “Pe ± SEM” value is on record as 11.0 ± 2.2 ×10^−6 cm s^−1. Further, the “BBB penetration estimation CNS (+/−)” value in data set [5] (class from PAMPA Pe) is given as “CNS + (CNS (+) (high BBB permeation predicted): Pe (×10^−6 cm s^−1) > 4.0)”.

(Values after PMC11110763, “Carltonine-derived compounds for targeted butyrylcholinesterase inhibition” (RSC Medicinal Chemistry, 2024).)
